Source: article PMC3950723, “A fluorescence-based assay suitable for quantitative analysis of deadenylase enzyme activity” (Nucleic Acids Research, 2013)
{Flc} = fluorescein group

Legend:
Type in all cases: biochemical
[1] = molecular target: T1, PARN (Homo sapiens, UniProt O95453); test: fluorescence-based deadenylase assay, selectivity; settings: 300 µM compound
T1 construct: made in house
T1 sequence (O95453 1-639): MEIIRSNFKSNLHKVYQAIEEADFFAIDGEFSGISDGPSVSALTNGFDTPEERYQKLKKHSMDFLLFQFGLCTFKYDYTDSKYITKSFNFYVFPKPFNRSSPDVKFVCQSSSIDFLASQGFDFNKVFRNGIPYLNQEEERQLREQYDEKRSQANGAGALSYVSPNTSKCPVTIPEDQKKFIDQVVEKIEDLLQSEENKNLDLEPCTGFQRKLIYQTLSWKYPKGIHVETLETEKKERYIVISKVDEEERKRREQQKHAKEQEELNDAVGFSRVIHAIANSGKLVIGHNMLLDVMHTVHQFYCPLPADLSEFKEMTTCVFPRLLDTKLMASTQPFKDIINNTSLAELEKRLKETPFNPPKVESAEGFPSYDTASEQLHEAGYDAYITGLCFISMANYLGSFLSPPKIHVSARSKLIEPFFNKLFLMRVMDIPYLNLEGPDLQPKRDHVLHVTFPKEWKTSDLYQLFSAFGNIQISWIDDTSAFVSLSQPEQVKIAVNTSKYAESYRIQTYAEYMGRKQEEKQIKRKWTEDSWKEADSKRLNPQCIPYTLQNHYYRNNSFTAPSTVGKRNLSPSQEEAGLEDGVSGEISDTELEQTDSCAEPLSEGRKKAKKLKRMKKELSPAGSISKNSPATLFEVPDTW
Method: (§1) Standard reaction conditions for deadenylase assays were: 20 mM Tris–HCl pH 7.9, 50 mM NaCl, 2 mM MgCl2, 10% glycerol, 1 mM β-mercaptoethanol and 1.0 µM 5′-Flc-labelled RNA substrate in nuclease-free water.
(§2) For fluorescence-based detection of nuclease activity, deadenylase reactions (10–20 µl) were incubated at 30°C for 60 min and stopped by the addition of an equal volume of probe mix containing 1% SDS, and a 5-fold molar excess of 3′-labelled DNA probe. Fluorescence intensity was measured at 25°C (sensitivity setting 70–90) using a BioTek Synergy HT plate reader with 96 or 384 U-shaped black multi-well plates. Filter sets used were: 485 ± 20 nm (excitation) and 528 ± 20 nm (emission). Data analysis and curve-fitting were carried out using Microsoft Excel 2007 and Graphpad Prism 5.0.

[2] = molecular target: T2, Ccr4/CNOT6L (Homo sapiens, UniProt Q96LI5); test: fluorescence-based deadenylase assay, selectivity; settings: 300 µM compound
T2 construct: lacking the amino terminal leucine-rich repeat domain (amino acids 1–155); made in house; host or cells: E. coli, plasmid pQE80L
T2 sequence (Q96LI5 156-555): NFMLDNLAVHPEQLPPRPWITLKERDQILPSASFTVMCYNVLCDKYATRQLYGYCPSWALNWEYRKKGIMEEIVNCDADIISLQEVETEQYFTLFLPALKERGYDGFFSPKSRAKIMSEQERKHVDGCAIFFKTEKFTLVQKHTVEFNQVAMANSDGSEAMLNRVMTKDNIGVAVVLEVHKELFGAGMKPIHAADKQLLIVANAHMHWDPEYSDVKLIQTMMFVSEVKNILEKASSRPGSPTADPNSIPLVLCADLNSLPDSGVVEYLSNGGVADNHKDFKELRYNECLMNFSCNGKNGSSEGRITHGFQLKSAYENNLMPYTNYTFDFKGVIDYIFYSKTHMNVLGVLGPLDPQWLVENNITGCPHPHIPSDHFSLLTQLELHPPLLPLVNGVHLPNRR
Method: as §1, §2

[3] = molecular target: T3, Caf1/CNOT7 (Homo sapiens, UniProt Q9UIV1); test: fluorescence-based deadenylase assay; settings: for inhibition of Caf1/CNOT7 activity: 300 µM compound; for IC50: 15 min pre-incubation at room temperature, 60 min at 30°C, ± standard error of the mean, at least three independent experiments
T3 construct: hexahistidine (N); made in house; host or cells: Escherichia coli BL21 (DE3), plasmid pQE80L
T3 sequence (Q9UIV1 whole entry): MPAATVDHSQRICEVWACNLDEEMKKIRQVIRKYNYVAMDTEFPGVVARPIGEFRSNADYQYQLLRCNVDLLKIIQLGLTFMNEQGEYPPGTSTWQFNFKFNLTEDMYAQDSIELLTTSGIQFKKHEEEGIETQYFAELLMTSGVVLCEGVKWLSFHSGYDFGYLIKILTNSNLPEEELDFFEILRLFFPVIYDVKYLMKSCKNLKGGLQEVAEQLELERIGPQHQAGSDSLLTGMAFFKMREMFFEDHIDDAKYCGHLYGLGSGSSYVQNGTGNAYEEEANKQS
Method: as §1, §2
Compounds (10 mM in dimethyl sulphoxide, DMSO) were stored in a dry, inert environment at −20°C and dispensed in 96-well plates using an automated facility (TTP Labtech Technology). Compounds were diluted to 0.5 mM using 20% DMSO/water. Aliquots (4 µl; 25% DMSO/water) were transferred to black U-well 384-well plates (Greiner Bio-One) and subsequent automated screening was carried out using a Biomek 3000 liquid handler (Beckman Coulter). After addition of enzyme (8 µl containing 1.0 µM Caf1/CNOT7, 50 mM Tris–HCl pH 7.9, 125 mM NaCl, 5 mM MgCl2, 25% glycerol, 2.5 mM β-mercaptoethanol), plates were left at room temperature for 15 min before the addition of RNA substrate (8 µl). The composition of the final reaction mixture was: 0.4 µM Caf1/CNOT7, 20 mM Tris–HCl pH 7.9, 50 mM NaCl, 2 mM MgCl2, 10% glycerol, 1 mM β-mercaptoethanol, 5% DMSO, 100 µM library compound. After incubation at 30°C for 60 min, 20 µl probe mix (5 µM DNA probe, 1% SDS, 20 mM Tris–HCl pH 8.0, 0.5 mM EDTA) was added. Fluorescence was measured using a BioTek Synergy HT plate reader as described above.

[4] = system: HeLa S-100 cytoplasmic extract; test: fluorescence-based detection of 3′ exonuclease activity in complex mixtures; settings: 300 µM compound, 0.05 mg/ml S-100 fraction
Method: as §1, §2
HeLa cytoplasmic extract (S-100 fraction) was purchased from Boston Biochem (cat no F-372, 5 mg/ml).

Molecule | inhibition of PARN activity [1] | inhibition of Ccr4/CNOT6L activity [2] | inhibition of Caf1/CNOT7 activity [3] | IC50 [3] [µM] | Km ([3]; 0.4 µM Caf1/CNOT7, non-linear regression of Michaelis–Menten equation) [µM] | inhibition of activity of the S-100 fraction [4]
Cc1ccccc1C(=O)Nc1nc2ccc(S(=O)(=O)NCC(C)C)cc2s1 [NCC-00001590] | did not inhibit | did not inhibit | only inhibited Caf1/CNOT7 | 98.7 ± 10.9 |  | 
5′-CCU UUC CAA AAA AAA A-3′ (CCUUUCCAAAAAAAAA; RNA, 5' {Flc}, backbone not given here; Deadenylase RNA substrate) [oligonucleotide substrate, 16-mer RNA substrate oligonucleotide containing a 5′ fluorescein (Flc) group, reference compound] |  |  |  |  | 10.6 ± 2.9 | 
CC(Cc1ccco1)NC(=O)CSc1nnc(C(=O)Nc2ccc(Cl)cc2)s1 (stereo not drawn) [NCC-00007277] |  |  |  | 137 ± 20.3 |  | strongest effect

Now from value to molecule, other results behind:

inhibition of PARN activity [1] | inhibition of Ccr4/CNOT6L activity [2] | inhibition of Caf1/CNOT7 activity [3] | IC50 [3] [µM] | Molecule | Km ([3]; 0.4 µM Caf1/CNOT7, non-linear regression of Michaelis–Menten equation) [µM] | inhibition of activity of the S-100 fraction [4]
did not inhibit | did not inhibit | only inhibited Caf1/CNOT7 | 129 ± 18.8 | COc1ccccc1NC(=O)c1ccc(NC(=O)CNC(=O)C(=O)NCc2cccs2)cc1 [NCC-00039069] |  | 
no complete inhibition | no complete inhibition |  | 233 ± 23.5 | Cc1ccc(S(=O)(=O)NCc2nnc(NC(=O)c3ccc(NC(=O)C(F)(F)F)cc3)s2)cc1 [NCC-00010651] |  | 
 |  |  | 97.5 ± 36.1 | Cc1ccc(N(CCC#N)C(=O)CSc2nc3cc(S(N)(=O)=O)ccc3n2C)cc1 [NCC-00019223] |  | 
